“And” between values parts separate entries of the source, which are not always exact repeats. Equal values may be shown once.
Tests used:
[1] = target: SARS-CoV-2 Main Protease (SARS-CoV-2) (UniProt P0DTD1)
[2] = rat; in vivo; iv; 0.5 mg/kg
[3] = not given; remark: listed apart in the source
[4] = human; liver_microsomes
[5] = human; plasma
[6] = rat; plasma
[7] = target: PSP (Eurofins): hr ERalpha (Binding) (AC50) (UniProt P03372)
[8] = pampa
[9] = not given; remark: listed apart in the source
[10] = helaace2

Chain of UniProt P03372 (P03372 whole entry, looked up): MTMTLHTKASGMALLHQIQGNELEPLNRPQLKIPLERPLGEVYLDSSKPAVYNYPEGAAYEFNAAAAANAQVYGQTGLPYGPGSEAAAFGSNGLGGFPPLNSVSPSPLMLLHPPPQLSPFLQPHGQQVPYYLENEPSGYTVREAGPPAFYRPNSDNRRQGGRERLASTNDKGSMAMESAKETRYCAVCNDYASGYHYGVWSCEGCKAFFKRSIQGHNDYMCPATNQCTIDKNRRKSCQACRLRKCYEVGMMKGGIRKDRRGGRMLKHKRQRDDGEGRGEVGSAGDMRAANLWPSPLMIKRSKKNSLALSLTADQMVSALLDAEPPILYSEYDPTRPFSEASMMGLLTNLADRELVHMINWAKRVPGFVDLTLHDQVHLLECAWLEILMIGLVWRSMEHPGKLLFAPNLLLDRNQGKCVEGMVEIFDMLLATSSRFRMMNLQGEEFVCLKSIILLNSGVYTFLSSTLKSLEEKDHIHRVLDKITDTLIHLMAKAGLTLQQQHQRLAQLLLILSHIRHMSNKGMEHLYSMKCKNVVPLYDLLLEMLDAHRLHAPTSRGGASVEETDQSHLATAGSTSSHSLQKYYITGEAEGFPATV

CN1CCN(S(=O)(=O)N2Cc3ccc(Cl)cc3C(C(=O)Nc3cncc4ccccc34)C2)CC1 (stereo not given)
IC50 [1]: 116 nM | AUC(0-inf) [2]: 88 ng·h/mL and 85 ng·h/mL | AUC(0-t) [2]: 84.3 ng·h/mL and 82.4 ng·h/mL | C0 [2]: 211 ng/mL and 112 ng/mL | MRT inf [2]: 56.3 min and 30.7 min | MRT last [2]: 24.9 min and 47.2 min | Vd [2]: 1.6 L/kg and 3.12 L/kg | clearance [2]: 52.1 mL/min/kg and 55.5 mL/min/kg | half-life [2]: 29.6 min and 52.7 min | logD: 2.1

O=C(Nc1cncc2ccccc12)C1CN(S(=O)(=O)CC2CNC2)Cc2ccc(Cl)cc21 (stereo not given)
Fa ([3]; mdck): 30.7% | Papp A→B ([3]; mdck): 1.6 ×10⁻⁶ cm/s | recovery ([3]; mdck): 93% | Papp A→B ([3]; mdck_mdr1): 0.517 ×10⁻⁶ cm/s and 0.7 ×10⁻⁶ cm/s | Papp B→A ([3]; mdck_mdr1): 0.896 ×10⁻⁶ cm/s and 0.9 ×10⁻⁶ cm/s | microsomal CLint [4]: 10 µL/min/mg | fraction unbound [5]: 0.295 | AUC(0-inf) [2]: 83.4 ng·h/mL and 86.5 ng·h/mL | AUC(0-t) [2]: 76.9 ng·h/mL and 76.7 ng·h/mL | C0 [2]: 406 ng/mL and 381 ng/mL | MRT inf [2]: 67.2 min and 61.8 min | MRT last [2]: 33.2 min and 32 min | Vd [2]: 5.86 L/kg and 6.06 L/kg | clearance [2]: 94.6 mL/min/kg and 91.2 mL/min/kg | half-life [2]: 91.2 min | logD: 0.2 | fraction unbound [6]: 0.335 | AC50 [7]: 20400 nM

CNC(=O)c1cc2c(NC(=O)C3CCOc4ccc(Cl)cc43)cncc2s1 (stereo not given)
IC50 [1]: 571 nM | AUC(0-inf) [2]: 267 ng·h/mL and 298 ng·h/mL | AUC(0-t) [2]: 263 ng·h/mL and 291 ng·h/mL | C0 [2]: 712 ng/mL and 752 ng/mL | MRT inf [2]: 55.4 min and 40.1 min | MRT last [2]: 35.8 min and 39.7 min | Vd [2]: 1.45 L/kg and 1.85 L/kg | clearance [2]: 36.2 mL/min/kg and 32.6 mL/min/kg | half-life [2]: 39.1 min and 113 min | logD: 3

COc1ccc(Cl)cc1OCCNC(=O)c1cc(=O)[nH]c2cccc(OC)c12
Papp [8]: 109 ×10⁻⁶ cm/s | IC50 [1]: 874 nM

O=C(Nc1cncc2ccccc12)C1CCN(Cc2ccn[nH]2)c2ccc(Cl)cc21 (stereo not given)
IC50 [1]: 803 nM | CC50 ([9]; a549): > 9990 nM

C=CC(=O)N(C(=O)[C@@H]1CCOc2ccc(Cl)cc21)c1cncc2ccccc12 (stereo in doubt)
CC50 ([9]; a549): > 9990 nM | CC50 ([9]; vero): > 9990 nM

COc1ccc(C[C@H](N)C(=O)N[C@H]2[C@@H](O)[C@H](n3cnc4c(N(C)C)ncnc43)O[C@@H]2CO)cc1 (stereo in doubt)
CC50 [10]: 325 nM and 831 nM and 504 nM

Cc1nc2n(n1)CC(C(=O)NC(C)(C(=O)Nc1cncc3ccccc13)c1ccc(Cl)c(Cl)c1)CC2 (stereo not given)
IC50 [1]: 3440 nM and 6760 nM | CC50 ([9]; a549): > 9990 nM

COc1cccc2[nH]c(=O)cc(C(=O)NCCOc3ccccc3OCC3CC3)c12
CC50 ([9]; a549): > 10000 nM

O=C(Nc1cncc2ccncc12)C1CCNc2cc(Cl)c(Cl)cc21 (stereo not given)
CC50 ([9]; a549): > 9990 nM

COCCN1CCC(C(=O)Nc2cncc3ccccc23)c2cc(Cl)ccc21 (stereo not given)
IC50 [1]: 564 nM | CC50 ([9]; a549): > 9990 nM

O=C(Cc1cc(F)cc(Cl)c1)Nc1cncc2ccccc12
IC50 [1]: 368 nM and 398 nM | CC50 ([9]; a549): > 9990 nM

Cc1ccc(CC(=O)Nc2cncc3ccccc23)cc1Cl
IC50 [1]: 1090 nM | CC50 ([9]; a549): > 9990 nM

O=C(Nc1cncc2ccccc12)C1CN(S(=O)(=O)C2CNC2)Cc2ccc(Cl)cc21 (stereo not given)
IC50 [1]: 274 nM | logD: 1.4

CN(C)C(=O)C[C@]1(C(=O)Nc2cncc3ccccc23)CCOc2ccc(Cl)cc21 (stereo in doubt)
IC50 [1]: 1300 nM | CC50 ([9]; vero): > 9990 nM

N#Cc1cc(Cl)cc2c1NCCC2C(=O)Nc1cncc2ccccc12 (stereo not given)
IC50 [1]: 242 nM | CC50 ([9]; a549): > 9990 nM

C[C@@H]1C[C@@H](C(=O)Nc2cncc3ccccc23)c2cc(Cl)ccc2O1 (stereo in doubt)
IC50 [1]: 231 nM | logD: 3.4

CC(C)(C)c1ccc(N(C(=O)c2cocn2)C(C(=O)NC2COC2)c2cccnc2)cc1 (stereo not given)
IC50 [1]: 4070 nM | CC50 ([9]; vero): > 10000 nM

— the COVID Moonshot data (paper PMC7615835)
